The structures appear in SMILES notation. Calls of active or inactive are those of the source. No cut-off for these calls is given here.

Among the data in ChEMBL document CHEMBL1140007, “Structure-activity studies of phenanthroindolizidine alkaloids as potential antitumor agents” (Bioorg Med Chem Lett, 2007) are IC50, GI50 and Activity values, retold here.

Data set [1] is described as follows: Inhibition of NF-kappaB-mediated gene transcription in HepG2 cells by luciferase reporter gene assay. It counts as cell-based. To be noted: Homo sapiens.
Data set [2] can be described thus: Inhibition of CRE-mediated gene transcription in HepG2 cells by luciferase reporter gene assay. It is filed as cell-based. To be noted: Homo sapiens.
For data set [3], the system named is HepG2. Briefly: Cytotoxicity against HepG2 cells. It is filed as functional. To be noted: Homo sapiens.
The test system of the next data set is PANC-1. Put plainly: Cytotoxicity against PANC1 cells. It is filed as functional. As to conditions: Homo sapiens.
Data set [4] concerns HepG2. Briefly: Down regulation of cyclin D1 expression in HepG2 cells. It counts as functional, cell-based. To be noted: Homo sapiens.
Data set [5] deals with Mus musculus. Put plainly: Reduction of body weight in HepG2 xenografted nude mouse at 9 mg/kg, ip after 10 days. It counts as ADME, organism-based. Set-up: dose 9 mg/kg, route intraperitoneal; scale not given: the % may be the effect or the level left. As to conditions: in vivo, 240 h.
Data set [6] concerns Mus musculus. Briefly: Reduction of body weight in HepG2 xenografted nude mouse at 9 mg/kg, ip after 9 days. It is filed as ADME, organism-based. Set-up: dose 9 mg/kg, route intraperitoneal; scale not given: the % may be the effect or the level left. As to conditions: in vivo, 216 h.
The subject of data set [7] is HepG2. Put plainly: Antitumor activity against HepG2 cells xenografted nude mouse at 9 mg/kg, ip twice per day on every third day for four cycles. As to conditions: Homo sapiens. It is filed as functional, organism-based. Also on record: dose 9 mg/kg.

In the case of `COc1cc2c3c(c4cc(OC)c(OC)cc4c2cc1OC)[C@@H](O)[C@@H]1CCCN1C3`, the results for the IC50 in data set [1] and in data set [2] were 315 nM and above 300 nM, respectively.
As for `COc1cc2c(cc1OC)-c1cc(OC)c(OC)cc1C1CN3CCC[C@H]3C=C21` (some centres not stated), the IC50 in data set [1] and in data set [2] was above 300 nM in each case.
As for `COc1cc2c3c(c4ccc(O)cc4c2cc1OC)[C@H](O)[C@@H]1CCCN1C3` [TYLOPHORIDICINE E], the GI50 with HepG2 [3] and in the data set on PANC-1 was above 5000 nM in each case. Moreover, the IC50 in data set [1] and in data set [2] was above 1000 nM in each case. In the data set with HepG2 [4], the Activity entry is “Dose-dependent effect”.
For `COc1ccc2c3c(c4cc(OC)c(OC)cc4c2c1)C[N+]1([O-])CCC[C@H]1[C@@H]3O` (some centres not stated) [TYLOPHORIDICINE F], the GI50 worked out at 71 nM in the data set with HepG2 [3] and 63 nM with PANC-1. Moreover, the IC50 in data set [1] was 367 nM; in data set [2] it was above 1000 nM. Further, in the data set with HepG2 [4], the Activity entry is “Dose-dependent effect”.
As to `COc1cc2c3c(c4cc(OC)c(OC)cc4c2cc1OC)[C@H](O)[C@@H]1CCCN1C3`, the Activity in the data set with Mus musculus [5] and in the data set with Mus musculus [6] was 15% throughout. Further, the IC50 in data set [2] was 1070 nM.
For the molecule `COc1ccc2c3c(c4cc(OC)c(O)cc4c2c1)CN1CCC[C@@H]1C3`, the GI50 in the data set on HepG2 [3] was found to be 13 nM; with PANC-1, 11 nM. Besides, in the data set on HepG2 [7], the result was inactive. The IC50 in data set [1] is 11 nM; in data set [2], 135 nM. In the data set with HepG2 [4], the Activity result is “Dose-dependent effect”.
Molecule `COc1cc2c3c(c4cc(OC)c(OC)cc4c2cc1O)CN1CCC[C@H]1[C@H]3O` displayed a GI50 in the data set on HepG2 [3] above 600 nM. For the same molecule, the 50% inhibitory concentration (IC50) in data set [1] is 322 nM; in data set [2], above 300 nM.
On to `COc1ccc2c3c(c4cc(OC)c(O)cc4c2c1)C[N+]1([O-])CCC[C@H]1[C@H]3O` (some centres not stated) [TYLOPHORIDICINE C], for which the GI50 in the data set with HepG2 [3] stood at 98 nM; with PANC-1 it was 67 nM. The IC50 was 600 nM in data set [1] and above 1000 nM in data set [2]. Also, the Activity entry in the data set on HepG2 [4] is “Dose-dependent effect”.
For `COc1ccc2c3c(c4cc(OC)c(OC)cc4c2c1)CN1CCC[C@H]1[C@@H]3O` [TYLOPHORININE] the same measures were 20 nM, 11 nM, 12 nM, 80 nM and “Dose-dependent effect”.
As for `COc1ccc2c3c(c4cc(OC)c(O)cc4c2c1)CN1CCC[C@H]1[C@H]3O` [TYLOPHORINIDINE], the GI50 with HepG2 [3] is 11 nM; with PANC-1 it was 7 nM. For the same molecule, the result in the data set on HepG2 [7] was Active. The IC50 in data set [1] amounted to 10 nM; in data set [2], 95 nM. For the same molecule, the Activity result in the data set with HepG2 [4] was “Dose-dependent effect”.

Usually IC50 stands for the point on the concentration scale where inhibition reaches its midpoint. Broadly, the GI50 is the concentration giving 50% growth inhibition.
